Source: PMC10860144, “Exploring the Dispersion and Electrostatic Components in Arene–Arene Interactions between Ligands and G4 DNA to Develop G4-Ligands” (Journal of Medicinal Chemistry, 2024)
Converted amounts (≈) assume the structure as drawn. “And” between values parts separate entries of the source, which are not always exact repeats. Equal values may be shown once.

Columns and labels:
[1] = Intrinsic clearance in human microsomes; format: in vitro ADME; details: read-out: Human mics: intrinsic clearance in human microsomes
Procedure: (§1) All compounds (2–11, 25–29) were screened for their logD and solubility at pH 7.4 and for their intrinsic clearance in rat hepatocytes and human microsomes (Table S2). […] Replacing the basic amine side chain to a methyl substituent in the quinazolines (25–29) still retained good solubility (134 to over 1000 μM) but increased clearance in both rat hepatocytes and human microsomes. The logD was low for compounds with a basic amine side chain (2–11) and increased slightly when the amine was replaced with a methyl (25–29). As expected, additional substituents also affected the logD with the chloro-substituents increasing logD the most.
(§2) a Intrinsic clearance in rat hepatocytes ((μL/min)/10^6 cells).b Intrinsic clearance in human microsomes (μL/min/mg). […]

c-MYC Pu22 G4 DNA = test: Microscale thermophoresis (MST), c-MYC Pu22 G4 DNA; format: binding, human; details: Cy5-labeled c-MYC Pu22 G4 DNA 25 nM; pH 7.4, 100 mM KCl; read-out: apparent Kd (MST)
Procedure: To evaluate the apparent binding affinities (Kd) for the compound series, we next used microscale thermophoresis (MST) with fluorescently labeled c-MYC Pu22 G4 DNA (Table S1). Overall, the measured MST binding results for compounds 2–11 corresponded well with the results from the FRET assay (Figures 2B and S3).
5′-Cy5 labeled G4 DNAs for this study were purchased from Eurofins Genomics. Stock solutions were prepared in water at 100 μM concentration. The sequences used are listed in Supporting Information Table S1. The G4 DNA sequences were folded in KCl buffer (10 mM phosphate, 100 mM KCl, pH 7.4) by heating at 95 °C for 5 min and then cooling to room temperature. All the experiments were performed in 10 mM phosphate pH 7.4, 100 mM KCl, and 0.05% Tween20. The labeled DNA concentration is held constant at 25 nM, and ligand concentration is varied depending on ligands Kd (16 1:3 dilutions). The samples were loaded into standard MST graded glass capillaries and initial fluorescence intensity of the capillary was measured using Monolith NT.115 (Nano Temper, Germany) with 20% LED power. The change in fluorescence with ligand’s concentrations were plotted in Excel and fitted through nonlinear equation to obtain the binding constants. […]
Microscale Thermophoresis (MST)
5'- Cy5 labelled G4 DNAs for this study were purchased from Eurofins Genomics. Stock solutions were prepared in water at […] concentration. The sequences used are listed in supplementary Table S1. The G4 DNA sequences were folded in KCl buffer (10 mM phosphate, 100 mM KCl, pH 7.4) by heating at 95 °C for 5 min and then cooling to room temperature. All the experiments were performed in 10 mM phosphate pH 7.4, 100 mM KCl, 0.05% Tween20. The labelled DNA concentration is held constant at 25 nM and ligand concentration is varied depending on ligands Kd (sixteen 1:3 dilutions). The samples were loaded into standard MST graded glass capillaries and initial fluorescence intensity of the capillary were measured using Monolith NT.115 (Nano Temper, Germany) with 20% LED power. The change in fluorescence with ligand's concentrations were plotted in Excel and fitted through non-linear equation to obtain the binding constants.
(1 picture or pasted object on this page, not shown here)

logD at pH 7.4 = format: physicochemical
Procedure: (§3) Physicochemical properties
(§4) The Physicochemical profiling (LogD, Solubility, Caco-2 cell permeability) was performed as previously
(§5) described.8 Cell viability was performed as described below.
(§6) Table S2. Pharmacokinetic Properties
(§7) Compound Structure logD, Solubility, Rat hepsa Human mics b

Solubility at pH 7.4 = format: physicochemical
Procedure: as §3, §4, §5, §6, §7

[2] = system: G4 structure on DNA template (PEPu24T); test: Taq polymerase stop (primer extension) assay, G4 template; format: biochemical; details: compound 0.24 μM; compared to DMSO control
Description: To challenge all the synthesized compounds (2–11 and 25–29) in a more intricate context, we conducted a Taq polymerase stop assay to evaluate their capacity to impede DNA synthesis through G4 stabilization. In this assay, we compared the progress of the Taq DNA polymerase along two distinct DNA templates: one with a G4 structure (Figure 5) and another serving as a non-G4 control (Figure S21). If an external species (e.g., G4 ligand) binds and stabilizes the G4 structure, the polymerase will be partially halted. The extent of this DNA polymerase stalling is dependent on the ability of the compound to stabilize the G4 on the DNA template. The increased G4 stabilization can be detected as a reduction in the amount of newly synthesized DNA that has reached the end of the DNA template (full-length/end-product). Analysis of these shorter terminated DNA products will give information about the precise location of the DNA polymerase stalling with a single nucleotide resolution. If the ligand imposes little to no stabilization or binding, the G4 is readily resolved by the DNA polymerase, and no difference in the amount of DNA end-product can therefore be expected upon the addition of the compound.
Templates for the primer extension assay were created by annealing 25 nt TET labeled primer (1 μM final concentration) to either PEPu24T or a mutated sequence not forming a G4, PEPu24T mut, (1.25 μM final concentration) in 100 mM KCl by heating to 95 °C for 5 min and slowly cooling to room temperature. […] Compounds were added in the indicated concentration and incubated on ice for 10 min before starting the reaction by adding dNTPs (100 μM final concentration) to the reaction and transferring it to 37 °C. Reactions were stopped after 15 min by addition of 10 μL of formamide loading buffer (0.5% SDS, 25 mM EDTA, 95% v/v formamide and xylene-cyanol). Samples were then loaded on a 12% polyacrylamide gel containing 7 M urea and 25% formamide and imaged using an Amersham Typhoon. The images were quantified using ImageJ 1.53e software, and the percentage of full-length product compared to a sample without compound was calculated.
Templates for the primer extension assay were created by annealing 25nt TET labelled primer (1 µM final concentration) to either PEPu24T or a mutated sequence not forming a G4, PEPu24T mut, (1.25 µM final concentration) in 100 mM KCl by heating to 95 °C for 5 min and slowly cooling to room temperature. The reaction mixture (10 µl) contained 1X Taq Buffer with KCl (10 mM Tris-HCl pH 8.8, 50 mM KCl, detergent), 25 mM MgCl2, […]
[…] Compounds were added in the indicated concentration and incubated on ice for 10 min before starting the reaction by adding dNTPs (100 µM final concentration) to the reaction and transferring it to 37 °C. Reactions were stopped after 15 min by addition of 10 µl of formamide loading buffer (0,5% SDS, 25 mM EDTA, 95% v/v formamide and xylene-cyanol). Samples were then loaded on a 12% polyacrylamide gel containing 7 M urea and 25% formamide and imaged using an Amersham™ Typhoon™.
The images were quantified using ImageJ 1.53e software and the percentage of full-length product compared to a sample without compound was calculated. […]

Pu24T c-MYC G4 structure = test: Kd for binding to the Pu24T c-MYC G4 structure (supplementary CSV); set-up: species or system human
Procedure: 5′-Cy5 labeled G4 DNAs for this study were purchased from Eurofins Genomics. Stock solutions were prepared in water at 100 μM concentration. The sequences used are listed in Supporting Information Table S1. The G4 DNA sequences were folded in KCl buffer (10 mM phosphate, 100 mM KCl, pH 7.4) by heating at 95 °C for 5 min and then cooling to room temperature. All the experiments were performed in 10 mM phosphate pH 7.4, 100 mM KCl, and 0.05% Tween20. The labeled DNA concentration is held constant at 25 nM, and ligand concentration is varied depending on ligands Kd (16 1:3 dilutions). The samples were loaded into standard MST graded glass capillaries and initial fluorescence intensity of the capillary was measured using Monolith NT.115 (Nano Temper, Germany) with 20% LED power. The change in fluorescence with ligand’s concentrations were plotted in Excel and fitted through nonlinear equation to obtain the binding constants.
The Supporting Information is available free of charge at https://pubs.acs.org/doi/10.1021/acs.jmedchem.3c02127. • Experimental procedures and data; assay data, computational results, and all cell data; NMR (^1H and ^13C) spectra for all compounds (with the exception of a few intermediates); and HPLC UV traces for the final compounds (PDF) • Molecular formula strings and Kd values for binding to the Pu24T c-MYC G4 structure (CSV)

[3] = Intrinsic clearance in rat hepatocytes; format: in vitro ADME
Procedure: as §1, §2

| Structure (SMILES) | microsomal CLint [1] | Kd (c-MYC Pu22 G4 DNA) | logD (logD at pH 7.4) | solubility (Solubility at pH 7.4) | full-length DNA product [2] | Kd (Pu24T c-MYC G4 structure) | Rat heps: intrinsic clearance in rat hepatocytes [3] |
| --- | --- | --- | --- | --- | --- | --- | --- |
| Cc1cc(NCCCN(C)C)nc(Nc2nc(C)c3ccccc3n2)n1 [Compound 3, N4-(3-(Dimethylamino)propyl)-6-methyl-N2-(4-methylquinazolin-2-yl)pyrimidine-2,4-diamine] | < 3 µL/min/mg | 0.15 µM | 0 | 858 µM (≈ 302 µg/mL) | ~45% | 0.15 ± 0.01 µM | 4 (μL/min)/106 cells |
| Cc1ccc2nc(Nc3nc(C)cc(NCCCN(C)C)n3)nc(C)c2c1 [Compound 4, N4-(3-(Dimethylamino)propyl)-N2-(4,6-dimethylquinazolin-2-yl)-6-methylpyrimidine-2,4-diamine] | < 3 µL/min/mg | 0.1 µM | 0.4 | > 1000 µM | about 30% | 0.1 ± 0.01 µM | < 1 (μL/min)/106 cells |
| Cc1cc(NCCCN(C)C)nc(Nc2nc3ccccc3nc2C)n1 [Compound 9, N4-(3-(Dimethylamino)propyl)-6-methyl-N2-(3-methylquinoxalin-2-yl)pyrimidine-2,4-diamine] | < 3 µL/min/mg | > 10 µM | 0.5 | 871 µM (≈ 306 µg/mL) |  | > 10 µM | 17 (μL/min)/106 cells |
| Cc1cc(NCCCN(C)C)nc(Nc2nc3cc(C)c(C)cc3nc2C)n1 [Compound 10, N4-(3-(Dimethylamino)propyl)-6-methyl-N2-(3,6,7-trimethylquinoxalin-2-yl)pyrimidine-2,4-diamine] | < 3 µL/min/mg | 2.3 µM and 2.26 µM | 1.4 | 838 µM (≈ 318 µg/mL) |  | 2.3 ± 0.5 µM | 19 (μL/min)/106 cells |

Next, values leading:

| microsomal CLint [1] | Kd (c-MYC Pu22 G4 DNA) | logD (logD at pH 7.4) | solubility (Solubility at pH 7.4) | full-length DNA product [2] | Kd (Pu24T c-MYC G4 structure) | Rat heps: intrinsic clearance in rat hepatocytes [3] | Structure (SMILES) |
| --- | --- | --- | --- | --- | --- | --- | --- |
| < 3 µL/min/mg | 3.9 µM and 3.85 µM | 2.3 | 646 µM (≈ 272 µg/mL) |  | 3.9 ± 0.7 µM | 6 (μL/min)/106 cells | Cc1cc(NCCCN(C)C)nc(Nc2nc3cc(Cl)c(Cl)cc3nc2C)n1 [Compound 11, N2-(6,7-Dichloro-3-methylquinoxalin-2-yl)-N4-(3-(dimethylamino)propyl)-6-methylpyrimidine-2,4-diamine] |
| 71 µL/min/mg | > 15 µM | 1.8 | > 1000 µM |  | > 15 µM | 17 (μL/min)/106 cells | Cc1cc(C)nc(Nc2nc(C)c3ccccc3n2)n1 [Compound 25, N-(4,6-Dimethylpyrimidin-2-yl)-4-methylquinazolin-2-amine] |
| 84 µL/min/mg | 3.3 µM | 2.2 | 951 µM (≈ 266 µg/mL) |  | 3.3 ± 0.3 µM | 20 (μL/min)/106 cells | Cc1ccc2nc(Nc3nc(C)cc(C)n3)nc(C)c2c1 [Compound 26, N-(4,6-Dimethylpyrimidin-2-yl)-4,6-dimethylquinazolin-2-amine] |
| 22 µL/min/mg | 3.6 µM | 1.9 | 271 µM (≈ 80 µg/mL) |  | 3.6 ± 0.7 µM | 34 (μL/min)/106 cells | COc1ccc2nc(Nc3nc(C)cc(C)n3)nc(C)c2c1 [Compound 28, N-(4,6-Dimethylpyrimidin-2-yl)-6-methoxy-4-methylquinazolin-2-amine] |
| 56 µL/min/mg | > 15 µM | 2.4 | 134 µM (≈ 40.2 µg/mL) |  | > 15 µM | 9 (μL/min)/106 cells | Cc1cc(C)nc(Nc2nc(C)c3cc(Cl)ccc3n2)n1 [Compound 29, 6-Chloro-N-(4,6-dimethylpyrimidin-2-yl)-4-methylquinazolin-2-amine] |
